Measurements published in ChEMBL document CHEMBL1201862, “PubChem BioAssay data set” (2004).
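Protocol summary: plate cells (96-well), add compound at 5 concentrations, incubate 48 h, interpolate endpoints linearly. GI50 marks 50% less growth.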 Active and inactive are the calls of the source. Cut-off read from the data, not from the text of the source: active = GI50 up to about 1.1 µM and inactive = higher.

What was measured:
Assay in all cases: NCI anticancer screen, dose series, 48 h
[1] = test system: A498
[2] = test system: CCRF-CEM
[3] = test system: EKVX
[4] = test system: HOP-92
[5] = test system: K562
[6] = test system: KM12
[7] = test system: NCI-H460
[8] = test system: NCI-H522
[9] = test system: NCI/ADR-RES
[10] = test system: SF-268
[11] = test system: SK-MEL-28
[12] = test system: SK-MEL-5
[13] = test system: SK-OV-3
[14] = test system: SN12C
[15] = test system: SNB-19
[16] = test system: U-251
[17] = test system: UACC-62
[18] = test system: UO-31
[19] = test system: M14
[20] = test system: SR

SMILES	GI50 [1]	GI50 [2]	GI50 [3]	GI50 [4]	GI50 [5]	GI50 [6]	GI50 [7]	GI50 [8]	GI50 [9]	GI50 [10]	GI50 [11]	GI50 [12]	GI50 [13]	GI50 [14]	GI50 [15]	GI50 [16]	GI50 [17]	GI50 [18]	GI50 [19]	GI50 [20]
CCCC[S+]([O-])CC(CO)NC(=O)/C=C/c1c(C)[nH]c(=O)[nH]c1=O (configuration not stated)	7.8 µM (inactive)	6.65 µM (inactive)	8.47 µM (inactive)	11.8 µM (inactive)	8.97 µM (inactive)	5.64 µM (inactive)	3.12 µM (inactive)	5.77 µM (inactive)	12.4 µM (inactive)	2.42 µM (inactive)	6.5 µM (inactive)	4.3 µM (inactive)	10.7 µM (inactive)	5.92 µM (inactive)	4.89 µM (inactive)	4.03 µM (inactive)	7.52 µM (inactive)	13.3 µM (inactive)		
CC1(C)OCC(CO)(CO)CO1	14 µM (inactive)	> 100 µM (inactive)		> 100 µM (inactive)	> 100 µM (inactive)	> 100 µM (inactive)	> 100 µM (inactive)	> 100 µM (inactive)	> 100 µM (inactive)	> 100 µM (inactive)	> 100 µM (inactive)	> 100 µM (inactive)	> 100 µM (inactive)	> 100 µM (inactive)	> 100 µM (inactive)	> 100 µM (inactive)		> 100 µM (inactive)	> 100 µM (inactive)	> 100 µM (inactive)
COc1cc([N+](=O)[O-])ccc1N1C(=O)C2c3[nH]c4ccccc4c3C3CCC(C(C)(C)C)CC3C2C1=O (configuration not stated)	> 100 µM (inactive)	21.8 µM (inactive)	33.4 µM (inactive)	22 µM (inactive)		> 100 µM (inactive)	18.9 µM (inactive)	42.4 µM (inactive)	22.3 µM (inactive)		9.12 µM (inactive)	40.9 µM (inactive)	> 100 µM (inactive)	64.4 µM (inactive)		9.79 µM (inactive)	19.6 µM (inactive)	> 100 µM (inactive)	13.6 µM (inactive)	> 100 µM (inactive)
CC1(C)N=C(/C(Cl)=[N+](/[O-])C(=O)c2ccc(Cl)cc2)C(C)(C)N1O		7.52 µM (inactive)	> 100 µM (inactive)	17.3 µM (inactive)	5.51 µM (inactive)	45.3 µM (inactive)	45.5 µM (inactive)		25.9 µM (inactive)	29.4 µM (inactive)	18.5 µM (inactive)	20 µM (inactive)	> 100 µM (inactive)	23.8 µM (inactive)	> 100 µM (inactive)	26.4 µM (inactive)	> 10 µM (inactive)	> 100 µM (inactive)	18.2 µM (inactive)	28.3 µM (inactive)
O=C(Nc1cccc([N+](=O)[O-])c1)C(=O)C(C(=O)c1ccccc1F)C1OC(=O)C2C=CC=CC21 (configuration not stated)	96.6 µM (inactive)	27.3 µM (inactive)	41 µM (inactive)	> 100 µM (inactive)	31.8 µM (inactive)	27.3 µM (inactive)	40.9 µM (inactive)	18.9 µM (inactive)		19.7 µM (inactive)	30.3 µM (inactive)	73.1 µM (inactive)	41.3 µM (inactive)	30.1 µM (inactive)	29.9 µM (inactive)	22.3 µM (inactive)	28 µM (inactive)	44.1 µM (inactive)	38 µM (inactive)	7.06 µM (inactive)
COc1cc(/N=N\c2cccc(S(=O)(=O)O)c2)ccc1/N=N\c1ccc(/C=C/c2ccc(-n3on3-c3ccc(/C=C/c4ccc(/N=N/c5ccc(/N=N\c6cccc(S(=O)(=O)O)c6)cc5OC)cc4S(=O)(=O)O)c(S(=O)(=O)O)c3)cc2S(=O)(=O)O)c(S(=O)(=O)O)c1	> 100 µM (inactive)	> 100 µM (inactive)	> 100 µM (inactive)	> 86.1 µM (inactive)	> 100 µM (inactive)	> 100 µM (inactive)	> 100 µM (inactive)	> 100 µM (inactive)	> 100 µM (inactive)	> 100 µM (inactive)	> 100 µM (inactive)	> 100 µM (inactive)	> 100 µM (inactive)	> 100 µM (inactive)	> 100 µM (inactive)	> 100 µM (inactive)	> 100 µM (inactive)	> 100 µM (inactive)		
O=Nn1c2ccccc2c2cc([N+](=O)[O-])ccc21	12.4 µM (inactive)	14.3 µM (inactive)	11.2 µM (inactive)	14.3 µM (inactive)	11.1 µM (inactive)	17.5 µM (inactive)	18 µM (inactive)	10.9 µM (inactive)	20.2 µM (inactive)	12.7 µM (inactive)	18.5 µM (inactive)	30.5 µM (inactive)	16.1 µM (inactive)	16.8 µM (inactive)	20.7 µM (inactive)	16.4 µM (inactive)	16 µM (inactive)	22.4 µM (inactive)	20 µM (inactive)	
O=C(Nc1ccc(Cl)cc1)c1cc2cc(/N=N/c3ccccc3Cl)ccc2oc1=O		2.01 µM (inactive)	25.5 µM (inactive)	18.9 µM (inactive)	5.28 µM (inactive)		26.8 µM (inactive)	21.7 µM (inactive)		15.2 µM (inactive)	15.9 µM (inactive)	22.2 µM (inactive)	46.9 µM (inactive)	18.7 µM (inactive)	27.5 µM (inactive)	14.2 µM (inactive)	8.39 µM (inactive)	11.6 µM (inactive)	15.5 µM (inactive)	15.8 µM (inactive)
O=C1c2cc3c(cc2CC1Cc1ccc2c(c1)CCC2)CCC3 (configuration not stated)	32.3 µM (inactive)	44.6 µM (inactive)	> 100 µM (inactive)		69.5 µM (inactive)	> 100 µM (inactive)	34.4 µM (inactive)	24.1 µM (inactive)	65.3 µM (inactive)	35.6 µM (inactive)	> 100 µM (inactive)	57.8 µM (inactive)	85.1 µM (inactive)	41.4 µM (inactive)	34.3 µM (inactive)	37.3 µM (inactive)	52 µM (inactive)	> 100 µM (inactive)	> 100 µM (inactive)	29.9 µM (inactive)
CCOC(=O)C(O)(NC(=O)c1ccccc1F)C(F)(F)F (configuration not stated)		> 100 µM (inactive)	> 100 µM (inactive)	> 100 µM (inactive)	> 100 µM (inactive)	> 100 µM (inactive)		> 100 µM (inactive)	> 100 µM (inactive)	> 100 µM (inactive)	> 100 µM (inactive)	> 100 µM (inactive)	> 100 µM (inactive)	> 100 µM (inactive)	> 100 µM (inactive)	> 100 µM (inactive)	> 100 µM (inactive)	> 100 µM (inactive)	> 100 µM (inactive)	> 100 µM (inactive)
COc1ccc(C(=O)C2CC3(CCC2(O)c2ccc(OC)cc2)CC(=O)Nc2ccccc2C3=O)cc1 (configuration not stated)	> 100 µM (inactive)	4.38 µM (inactive)	> 100 µM (inactive)	0.5 µM (active)	> 100 µM (inactive)		6.75 µM (inactive)		> 100 µM (inactive)	> 100 µM (inactive)		4.98 µM (inactive)	> 100 µM (inactive)	> 100 µM (inactive)		63.7 µM (inactive)	> 100 µM (inactive)	18.1 µM (inactive)	> 100 µM (inactive)	> 100 µM (inactive)
COc1cc(C2c3cc4c(cc3[C@@H](Nc3ccc(Oc5ccccc5)cc3)C3COC(=O)[C@H]23)OCO4)cc(OC)c1O (some centres not stated)	1.24 µM (inactive)	0.431 µM (active)	> 39.7 µM (inactive)		1.14 µM (inactive)	4.57 µM (inactive)	0.0867 µM (active)	2.25 µM (inactive)	9.02 µM (inactive)	2.52 µM (inactive)	> 42.3 µM (inactive)	1.58 µM (inactive)	4.93 µM (inactive)	2.7 µM (inactive)	3.27 µM (inactive)	2.36 µM (inactive)	0.869 µM (active)	2.59 µM (inactive)		
CCOC(=O)Cc1cnc(NC(NC(=O)CC)(C(F)(F)F)C(F)(F)F)s1	> 100 µM (inactive)	> 100 µM (inactive)	> 100 µM (inactive)		> 100 µM (inactive)	> 100 µM (inactive)	> 100 µM (inactive)	> 100 µM (inactive)		> 100 µM (inactive)	> 100 µM (inactive)		> 100 µM (inactive)	> 100 µM (inactive)	> 100 µM (inactive)	> 100 µM (inactive)	> 100 µM (inactive)	> 100 µM (inactive)	> 100 µM (inactive)	> 100 µM (inactive)
COS(=O)c1cc(Cl)cc(Cl)c1O (configuration not stated)	> 100 µM (inactive)	> 100 µM (inactive)	> 100 µM (inactive)		> 100 µM (inactive)	> 100 µM (inactive)	> 100 µM (inactive)	18 µM (inactive)		> 100 µM (inactive)	> 100 µM (inactive)		81.7 µM (inactive)	> 100 µM (inactive)	> 100 µM (inactive)	> 100 µM (inactive)	> 100 µM (inactive)	> 100 µM (inactive)	> 100 µM (inactive)	> 100 µM (inactive)
CCOC(=O)C1=NN(c2ccc(C)cc2)C2=CC(C)=NN(C)C(=S)N21		> 100 µM (inactive)	81.1 µM (inactive)	> 10 µM (inactive)	> 100 µM (inactive)	> 100 µM (inactive)	> 100 µM (inactive)	12.2 µM (inactive)	> 100 µM (inactive)	85.5 µM (inactive)	> 100 µM (inactive)	> 100 µM (inactive)	70.3 µM (inactive)	> 100 µM (inactive)	> 100 µM (inactive)	38.5 µM (inactive)	31.9 µM (inactive)	> 100 µM (inactive)	> 100 µM (inactive)	> 100 µM (inactive)
